Data: US20090099167A1, “Organic compounds” (Novartis Institutes for Biomedical Research, priority 2004, published 2009)

Target: T1, human Flt-3 (Homo sapiens, UniProt P36888)
T1 construct: expressing the amino acid region amino acids 563-993 of the cytoplasmic kinase domain of human Flt-3; made in house; host or cells: Sf9 (baculovirus)
T1 sequence (P36888 563-993): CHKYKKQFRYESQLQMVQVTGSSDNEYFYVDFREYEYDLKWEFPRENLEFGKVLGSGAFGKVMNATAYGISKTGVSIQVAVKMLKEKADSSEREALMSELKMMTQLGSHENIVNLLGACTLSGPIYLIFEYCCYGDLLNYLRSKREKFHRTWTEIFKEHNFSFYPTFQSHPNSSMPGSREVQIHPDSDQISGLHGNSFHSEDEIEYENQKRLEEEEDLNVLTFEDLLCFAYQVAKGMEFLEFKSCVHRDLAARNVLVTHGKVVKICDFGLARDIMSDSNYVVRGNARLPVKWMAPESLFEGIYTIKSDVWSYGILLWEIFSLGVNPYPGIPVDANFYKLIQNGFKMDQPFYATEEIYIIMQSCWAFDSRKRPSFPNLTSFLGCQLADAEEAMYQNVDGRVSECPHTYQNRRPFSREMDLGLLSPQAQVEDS
Test: Flt3 kinase inhibition, GST-Flt-3, 33P incorporation into poly(Glu,Tyr)
Assay type: biochemical
Settings: Table 5; read-out: Flt-3, IC50 class
Experimental: The compounds to be tested are then diluted in culture medium (without FCS, with 0.1% bovine serum albumin) and added to the cells. (Controls comprise medium without test compounds). After two hours' incubation at 37° C., recombinant VEGF is added; the final VEGF concentration is 20 ng/ml). After a further five minutes incubation at 37° C., the cells are washed twice with ice-cold PBS (phosphate-buffered saline) and immediately lysed in 100 μl lysis buffer per well. The lysates are then centrifuged to remove the cell nuclei, and the protein concentrations of the supernatants are determined using a commercial protein assay (BIORAD). The lysates can then either be immediately used or, if necessary, stored at −20° C. A sandwich ELISA is carried out to measure the VEGF-R2 phosphorylation: a monoclonal antibody to VEGF-R2 (for example Mab 1495.12.14; ProQinase, Freiburg, Germany) is immobilized on black ELISA plates (OptiPlate™ HTRF-96 from Packard). The plates are then washed and the remaining free protein-binding sites are saturated with 3% TopBlock® (Juro, Cat. # TB232010) in phosphate buffered saline with Tween 20® (polyoxyethylen(20)-sorbitane monolaurate, ICI/Uniquema) (PBST). The cell lysates (20 μg protein per well) are then incubated in these plates overnight at 4° C. together with an antiphosphotyrosine antibody coupled with alkaline phosphatase (PY20:AP from Zymed). […] The luminescence is measured in a Packard Top Count Microplate Scintillation Counter. The difference between the signal of the positive control (stimulated with VEGF) and that of the negative control (not stimulated with VEGF) corresponds to VEGF-induced VEGF-R2 phosphorylation (=100%). The activity of the tested substances is calculated as percent inhibition of VEGF-induced VEGF-R2 phosphorylation, wherein the concentration of substance that induces half the maximum inhibition is defined as the IC50 (inhibitory dose for 50% inhibition). […] Flt3 kinase inhibition is determined as follows: The baculovirus donor vector pFbacG01 (GIBCO) is used to generate a recombinant baculovirus expressing the amino acid region amino acids 563-993 of the cytoplasmic kinase domain of human Flt-3. The coding sequence for the cytoplasmic domain of Flt-3 is amplified by PCR from human c-DNA libraries (Clontech). The amplified DNA fragments and the pFbacG01 vector are made compatible for ligation by digestion with BamH1 and HindIII. Ligation of these DNA fragments results in the baculovirus donor plasmid Flt-3(1.1). The production of the viruses, the expression of proteins in Sf9 cells and the purification of the GST-fused proteins are performed as follows: Production of virus: Transfer vector (pFbacG01-Flt-3) containing the Flt-3 kinase domain is transfected into the DH10Bac cell line (GIBCO) and the transfected cells are plated on selective agar plates. Colonies without insertion of the fusion sequence into the viral genome (carried by the bacteria) are blue. Single white colonies are picked and viral DNA (bacmid) is isolated from the bacteria by standard plasmid purification procedures. Sf9 or Sf21 cells (American Type Culture Collection) are then transfected in flasks with the viral DNA using Cellfectin reagent. Determination of small scale protein expression in Sf9 cells: Virus containing media is collected from the transfected cell culture and used for infection to increase its titre. Virus containing media obtained after two rounds of infection is used for large-scale protein expression. For large-scale protein expression 100 cm^2 round tissue culture plates are seeded with 5×10^7 cells/plate and infected with 1 mL of virus-containing media (approx. 5 MOIs). After 3 days the cells are scraped off the plate and centrifuged at 500 rpm for 5 min. Cell pellets from 10-20, 100 cm^2 plates, are resuspended in 50 mL of ice-cold lysis buffer (25 mMTris-HCl, pH 7.5, 2 mM EDTA, 1% NP-40, 1 mM DTT, 1 mM PMSF). The cells are stirred on ice for 15 min and then centrifuged at 5000 rpms for 20 min. […]

Row | Structure (SMILES) | IC50 [µM]
1 | Cc1nc2c(-c3cccc(N4CCN(C)CC4)c3)cnn2c(N)c1-c1ccc(F)c(F)c1 [Example 98, 6-(3,4-Difluoro-phenyl)-5-methyl-3-[3-(4-methyl-piperazin-1-yl)-phenyl]-pyrazolo[1,5-a]pyrimidin-7-ylamine] | > 10
2 | COc1ccc(-c2cnn3c(N)c(-c4ccc(F)c(F)c4)c(C)nc23)cc1OC [Example 99, 6-(3,4-Difluoro-phenyl)-3-(3,4-dimethoxy-phenyl)-5-methyl-pyrazolo[1,5-a]pyrimidin-7-ylamine] | > 10
3 | Cc1nc2c(-c3cccc(N4CCN(CCO)CC4)c3)cnn2c(N)c1-c1ccc(F)c(Cl)c1 [Example 100, 2-(4-{3-[7-Amino-6-(3-chloro-4-fluoro-phenyl)-5-methyl-pyrazolo[1,5-a]pyrimidin-3-yl]-phenyl}-piperazin-1-yl)-ethanol] | > 10

The remaining lines, values ahead:

Row | IC50 [µM] | Structure (SMILES)
4 | > 10 | Cc1nc2c(-c3cccc(N4CCN(CCO)CC4)c3)cnn2c(N)c1-c1ccc(F)c(F)c1 [Example 101, 2-(4-{3-[7-Amino-6-(3,4-difluoro-phenyl)-5-methyl-pyrazolo[1,5-a]pyrimidin-3-yl]-phenyl}-piperazin-1-yl)-ethanol]
5 | > 10 | Cc1nc2c(-c3cccc(N4CCC(N5CCCC5)CC4)c3)cnn2c(N)c1-c1cccc(Cl)c1 [Example 102, 6-(3-Chloro-phenyl)-5-methyl-3-[3-(4-pyrrolidin-1-yl-piperidin-1-yl)-phenyl]-pyrazolo[1,5-a]pyrimidin-7-ylamine]
6 | > 10 | Cc1nc2c(-c3cccc(N4CCC(N5CCCC5)CC4)c3)cnn2c(N)c1-c1ccc(F)cc1 [Example 103, 6-(4-Fluoro-phenyl)-5-methyl-3-[3-(4-pyrrolidin-1-yl-piperidin-1-yl)-phenyl]-pyrazolo[1,5-a]pyrimidin-7-ylamine]
7 | > 10 | Cc1nc2c(-c3cccc(N4CC[N+](C)([O-])CC4)c3)cnn2c(N)c1-c1ccc(F)cc1 [Example 106, 6-(4-Fluoro-phenyl)-5-methyl-3-[3-(4-methyl-4-oxy-piperazin-1-yl)-phenyl]-pyrazolo[1,5-a]pyrimidin-7-ylamine]
8 | > 10 | Cc1nc2c(-c3cccc([N+]4([O-])CC[N+](C)([O-])CC4)c3)cnn2c(N)c1-c1ccc(F)cc1 (centres unmarked) [Example 107, 6-(4-Fluoro-phenyl)-5-methyl-3-[3-(4-methyl-1,4-dioxy-piperazin-1-yl)-phenyl]-pyrazolo[1,5-a]pyrimidin-7-ylamine]
